The test system of one series is Typhlodromus pyri. In words: LR50; higher = less toxic. The note with it: acute; duration: 14 days; mortality.
Another series concerns Apis mellifera. Particulars: acute; duration: 48 hours; oral; unspecified; mortality.
In the next series the test system is Rattus norvegicus. Particulars: acute; oral; mortality.
The subject of a further series is Bibionidae. The note with it: chronic/long-term; duration: 28 days.
For a further series, the system named is Canidae. Particulars: chronic; duration: 1 years; oral; Dog Other; clinical chemistry.
The next series has as its system Daphnia magna. The note with it: chronic/long-term; duration: 21 days; reproduction.
For series [1] the following is noted: reproductive; oral; feed.
For the next series, the system named is Tagia sp. The note with it: acute; mortality.

Broadly, the NOAEL is the highest tested level that showed no adverse finding.

For `CCC(C)(C)C(=O)OC1=C(c2ccc(Cl)cc2Cl)C(=O)OC12CCCCC2` [Spirodiclofen], in the series on Typhlodromus pyri, the LR50 came out at 2.4 g/ha. The LD50 in the series with Apis mellifera is greater than 196 µg/piece; with Rattus norvegicus it was greater than 2500 mg/kg; with Colinus virginianus (acute, oral, mortality), greater than 2000 mg/kg. Also, the NOEC turned out to be 0.032 mg/L in the series with Bibionidae; 51 mg/kg-day in the series on Colinus virginianus (reproduction developmental); 111 mg/kg-day with Anas platyrhynchos (reproductive); 0.0111 mg/L in the series with Daphnia magna; 6 mg/kg-day in [1]; 0.00195 mg/L in the series with Oncorhynchus mykiss (chronic/long-term, duration: 97 days, time to hatch). Also, the LC50 was greater than 1060 mg/kg-day with Colinus virginianus (acute, oral, diet, mortality); greater than 2270 mg/kg-day with Anas platyrhynchos (short-term, oral, feed, mortality); greater than 1000 mg/kg with Tagia sp.; greater than 0.0351 µg/mL in the series with Oncorhynchus mykiss (acute, duration: 96 hours, mortality). The same compound came in with an NOAEL in the series on Canidae of 1.45 mg/kg-day.

The values are drawn from EPA's ToxValDB 9.5 (doi:10.2903/j.efsa.2009.339r).
